Legend:
[1] = tested on: CHO cells; experiment: DMR in wild type CHO cells; conditions: for DMR response, CHO: CHO cells, pm ± sem
[2] = biological target: T1, human NOP receptor (Homo sapiens, UniProt P41146); experiment: DMR assay in CHONOP cells, agonist effects; conditions: for DMR response, CHONOP: pm ± sem; for Emax: DMR maximal effect; for maximal effects compared with N/OFQ: DMR; for pEC50: DMR peak, at least 3 experiments in triplicate, inactive = no DMR response up to 1 μM, parentheses: CL95% (Fig 3)
T1 sequence (P41146 whole entry): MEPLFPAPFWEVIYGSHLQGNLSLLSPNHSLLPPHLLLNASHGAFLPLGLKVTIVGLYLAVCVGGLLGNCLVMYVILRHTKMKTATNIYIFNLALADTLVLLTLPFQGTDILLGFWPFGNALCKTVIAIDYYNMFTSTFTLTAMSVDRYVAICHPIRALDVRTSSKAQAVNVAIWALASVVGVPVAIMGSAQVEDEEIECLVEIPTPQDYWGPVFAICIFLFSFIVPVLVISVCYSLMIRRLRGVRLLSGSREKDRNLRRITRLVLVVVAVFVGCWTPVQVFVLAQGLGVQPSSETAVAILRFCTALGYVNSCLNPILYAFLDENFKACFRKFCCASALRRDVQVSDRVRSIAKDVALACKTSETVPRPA

[3] = biological target: human Nociceptin/Orphanin FQ (N/OFQ) peptide NOP receptor (human) (UniProt P41146)
human Nociceptin/Orphanin FQ (N/OFQ) peptide NOP receptor (human), sequence (P41146 whole entry): as above

[4] = biological target: human Nociceptin/Orphanin FQ (N/OFQ) peptide NOP receptor (human) (UniProt P41146); remark: listed apart in the source
[5] = tested on: NOP receptor; conditions: cited from earlier work
From the text: This is in general in line with literature reports (see Table 2 of [3] that summarizes the action of these compounds in various assays/preparations at human recombinant and rodent native NOP receptors). However, there are some aspects that deserve attention.

[6] = biological target: T1, human NOP receptor; experiment: DMR assay in CHONOP cells, antagonism of agonist concentration response curve
[7] = biological target: mu opioid receptor (UniProt P35372)
mu opioid receptor, sequence (P35372 whole entry): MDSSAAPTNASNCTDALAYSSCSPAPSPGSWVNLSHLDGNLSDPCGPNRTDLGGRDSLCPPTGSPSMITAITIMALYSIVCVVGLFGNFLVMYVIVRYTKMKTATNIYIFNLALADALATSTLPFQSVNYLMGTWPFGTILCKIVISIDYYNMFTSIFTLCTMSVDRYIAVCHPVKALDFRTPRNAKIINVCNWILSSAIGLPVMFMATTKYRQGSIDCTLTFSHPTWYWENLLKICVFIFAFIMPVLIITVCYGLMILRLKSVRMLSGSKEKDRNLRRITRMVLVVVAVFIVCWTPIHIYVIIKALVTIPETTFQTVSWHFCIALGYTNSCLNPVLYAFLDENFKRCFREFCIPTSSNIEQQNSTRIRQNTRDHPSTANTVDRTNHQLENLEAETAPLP

[8] = tested on: NOP receptor (transfected neurons); conditions: electrophysiology; cited from earlier work
[9] = tested on: NOP receptor (control neurons); conditions: electrophysiology; cited from earlier work
[10] = biological target: T1, human NOP receptor; format: cell-based; design: expressed in transfected cells; conditions: comparison N/OFQ and Ac-RYYRIK-NH2
[11] = biological target: T1, human NOP receptor; experiment: Classical Schild protocol, DMR in CHONOP cells
[12] = CHONOP cells, 100 μM, * p < 0.05 vs buffer
[13] = 1 μM, 37°C, * p < 0.05 vs buffer (one-way ANOVA, Dunnett's)
[14] = CHONOP cells, 1 μM, 37°C, * p < 0.05 vs buffer (one-way ANOVA, Dunnett's)

For `Nc1ncnc2c1ncn2[C@@H]1O[C@H](COP(=O)(O)OP(=O)(O)OP(=O)(O)O)[C@@H](O)[C@H]1O` [ATP], the “DMR response, CHO” value ([1]; 100 μM, * p < 0.05 vs buffer) was 177±15 ^* pm and the “DMR response, CHONOP” value [2, 12] was 185±12 ^* pm.
In the case of `O=C1NCN(c2ccccc2)C12CCN(C1Cc3cccc4cccc1c34)CC2` (centres unmarked) [Ro 65–6570], the “activity in wild type CHO cells” value ([1]; 10 μM) is reported as “exhibited a DMR response in wild type CHO cells” and the “DMR response, CHO” value [1, 13] is reported as 23±8 pm.
Ac-RYYRIK-NH2 (peptide) gave a DMR response at 1 μM, CHONOP cells [3] of 182 pm.
With [F/G]N/OFQ(1–13)-NH2 (peptide) the intrinsic activity α (Emax relative to N/OFQ), DMR, CHONOP cells (relative to N/OFQ) [4] was 0.98, the pEC50 of the DMR response (peak), CHONOP cells [4] was 8.06 -log10(M) and the DMR response at 1 μM, CHONOP cells [3] was 200 pm.
For `CC(C)C1CCC(N2CCC(N3C(=O)C(=O)c4ccccc43)CC2)CC1` (centres unmarked) [AT-090], the “efficacy vs N/OFQ, GTPγS binding” value [5] is given as “significantly lower efficacy than N/OFQ”, the “efficacy vs N/OFQ, NOP/G protein interaction” value [5] is given as “significantly lower efficacy than N/OFQ” and the “DMR response, CHO” value [1, 13] is given as 21±3 pm. The “intrinsic activity (α)” value [2] was 1.23, the Emax ([2]; CHONOP cells) was 252 and the “DMR response, CHONOP” value [2, 14] was 252±15 ^* pm. For the same molecule, the “maximal effects compared with N/OFQ” value ([2]; CHONOP) was “not statistically different to those of N/OFQ”.
With PWT2-N/OFQ (peptide) the intrinsic activity α (Emax relative to N/OFQ), DMR, CHONOP cells (relative to N/OFQ) [4] was 0.97, the pEC50 of the DMR response (peak), CHONOP cells, tested up to 0.1 μM [4] was 8 -log10(M) and the DMR response at 0.1 μM, CHONOP cells [3] was 198 pm.
With UFP-112 (peptide) the intrinsic activity α (Emax relative to N/OFQ), DMR, CHONOP cells (relative to N/OFQ) [4] was 1.21, the pEC50 of the DMR response (peak), CHONOP cells [4] was 8.66 -log10(M) and the DMR response at 1 μM, CHONOP cells [3] was 248 pm.
In the case of `C[C@H](NC(=O)CNC(=O)[C@@H](NC(=O)[C@H](Cc1ccccc1)NC(=O)CNC(=O)CNC(=O)CNCc1ccccc1)[C@@H](C)O)C(=O)N[C@@H](CCCNC(=N)N)C(=O)N[C@@H](CCCCN)C(=O)N[C@@H](CO)C(=O)N[C@@H](C)C(=O)N[C@@H](CCCNC(=N)N)C(=O)N[C@@H](CCCCN)C(=O)N[C@@H](CCCNC(=N)N)C(=O)N[C@@H](CCCCN)C(=O)N[C@@H](CC(N)=O)C(=O)N[C@@H](CCC(N)=O)C(N)=O` [UFP-101, [Nphe1,Arg14,Lys15]nociceptin-NH2], the Kb [6] is reported as 25.1 nM, the pEC50 ([2]; CHONOP cells, 37°C) is reported as “crc incomplete” and the “stimulatory effect per se” value ([2]; CHONOP, % of the maximal effects of N/OFQ) is reported as roughly 20%.
In the case of `C=CCN1CC[C@]23c4c5ccc(O)c4O[C@H]2C(=O)CC[C@@]3(O)[C@H]1C5` [Naloxone], the “DMR response, CHO” value [1, 13] is reported as 23±5 pm.
For Dermorphin (peptide), the pEC50 of the DMR response, CHO cells expressing the mu opioid receptor [7] was 8.59 -log10(M).
For `CCn1c(=O)n(C2=C(CO)CN(CC3CCCCCCC3)CC2)c2ccccc21` [Trap-101], the “activity in NOP transfected neurons” value [8] is given as “inverse agonists” and the “activity in control neurons” value [9] is given as “pure antagonists”.
In the case of `CC[C@H](C)[C@H](NC(=O)[C@H](CCCNC(=N)N)NC(=O)[C@H](Cc1ccc(O)cc1)NC(=O)[C@H](Cc1ccc(O)cc1)NC(=O)[C@H](CCCNC(=N)N)NC(C)=O)C(=O)N[C@@H](CCCCN)C(N)=O` [Ac-RYYRIK-NH2], the “sensitivity of DMR response to PTX” value [10] is given as “equally sensitive to PTX”, the “efficacy vs N/OFQ, GTPγS binding” value [5] is given as “significantly lower efficacy than N/OFQ” and the “efficacy vs N/OFQ, NOP/G protein interaction” value [5] is given as “significantly lower efficacy than N/OFQ”. The “DMR response, CHO” value [1, 13] was 17±8 pm, the “sensitivity of DMR response to SB-612111” value ([6]; comparison N/OFQ and Ac-RYYRIK-NH2) was “equally sensitive to PTX and to the NOP selective antagonist SB-612111” and the “intrinsic activity (α)” value [2] was 0.89. For the same molecule, the Emax ([2]; CHONOP cells) was 182, the “DMR response, CHONOP” value [2, 14] was 182±11 ^* pm and the “maximal effects compared with N/OFQ” value ([2]; CHONOP) was “not statistically different to those of N/OFQ”. For the same molecule, the “negative DMR signal” value ([2]; after 1000 sec, in some but not all experiments) was “concentration dependent negative signal after 1000 sec”.
With UFP-101 (peptide) the pKB (antagonist potency): rightward shift by 1 μM UFP-101 of the concentration response curve to N/OFQ at the NOP receptor, DMR, CHONOP cells [4] was 7.6 -log10(M) and the DMR response at 1 μM, CHONOP cells (not marked as different from buffer) [3] was 40 pm.
For `Cc1cccc2c1CC[C@H](CN1CCC(c3c(Cl)cccc3Cl)CC1)C[C@@H]2O` [SB-612111, (-)-cis-1-methyl-7-[[4-(2,6-dichlorophenyl)piperidin-1-yl]methyl]-6,7,8,9-tetrahy dro-5H-benzocyclohepten-5-ol], the “DMR response, CHO” value [1, 13] was 26±3 pm, the “effect on N/OFQ maximal effects (Schild)” value ([11]; 10 nM–1 μM) was “without significantly affecting its maximal effects” and the Schild slope ([11]; vs N/OFQ, Schild plot) was roughly 1. For the same molecule, the “effect per se in CHONOP cells” value ([2]; CHONOP cells) was “did not produce any effect per se”, the pEC50 ([2]; CHONOP cells, 37°C) was “inactive” and the “DMR response, CHONOP” value [2, 14] was -10±9 pm.
Work on [Arg^14,Lys^15]N/OFQ (peptide) yielded a DMR response at 1 μM, CHONOP cells [3] of 271 pm.
For `C=C[C@@]1(C)CC(=O)[C@]2(O)[C@@]3(C)[C@@H](O)CCC(C)(C)[C@@H]3[C@H](O)[C@H](OC(C)=O)[C@@]2(C)O1` [FSK], the “DMR response, CHO” value ([1]; 100 μM, * p < 0.05 vs buffer) was -172±23 ^* pm and the “DMR response, CHONOP” value [2, 12] was -164±15 ^* pm.
[Nphe^1]N/OFQ(1–13)-NH2 (peptide) showed a DMR response at 1 μM, CHONOP cells [3] of 180 pm.

Reference: paper PMC6117024, “NOP receptor pharmacological profile – A dynamic mass redistribution study” (PLoS ONE, 2018)
